In paper PMC9269301, “Phytochemical Analysis, Antioxidant, Antimicrobial, and Cytotoxic Activity of Different Extracts of Xanthoparmelia stenophylla Lichen from Stara Planina, Serbia” (Plants, 2022):
Converted amounts (≈) assume the structure as drawn. Like-named read-outs stand apart in the source and are kept apart here.

Key:
S. aureus (isolate) = assay: Microdilution with resazurin, antibacterial; assay type: cell-based, Staphylococcus aureus
Experimental: (§1) The tested methanol, acetone, and n-hexane extracts, as well as the component (usnic acid) of X. stenophylla, were dissolved in 10% dimethyl sulfoxide (DMSO) and then diluted into the nutrient liquid medium. DMSO was obtained from Acros Organics (Fair Lawn, NJ, USA). Resazurin was obtained from Alfa Aesar GmbH & Co. (KG, Karlsruhe, Germany).
(§2) The antimicrobial activity of the extracts and components was tested against 19 microorganisms. The experiment involved 15 strains of bacteria (i.e., 6 standard strains: Staphylococcus aureus ATCC 6538, Bacillus subtilis ATCC 6633, Proteus mirabilis ATCC 12453, Pseudomonas aeruginosa ATCC 27853, Klebsiella pneumoniae ATCC 70063, and Escherichia coli ATCC 25922; 9 isolates: Staphylococcus aureus, Escherichia coli, Salmonella enterica, Salmonella Typhimurium, Proteus mirabilis, Klebsiella pneumoniae, Pseudomonas aeruginosa, Bacillus subtilis, and Bacillus cereus). In addition, four fungal strains (i.e., two standard strains: Candida albicans ATCC 10231 and Aspergillus niger ATCC 16888; two isolates: Saccharomyces cerevisiae and Candida albicans) were tested. All isolates were a generous gift from the Institute of Public Health, Kragujevac. The other microorganisms were provided from the collection held by the Microbiology Laboratory Faculty of Science, University of Kragujevac.
(§3) The bacterial suspensions were prepared by the direct colony method. The turbidity of the initial suspension was adjusted using a densitometer (DEN-1, BioSan, Riga, Latvia). When adjusted to the turbidity of the 0.5 McFarland’s standard (Andrews, 2005) the bacteria suspension contained approximately 10^8 colony-forming units (CFU)/mL, and the suspension of yeast contained 10^6 CFU/mL; 1:100 dilutions of the initial suspension were additionally prepared in sterile 0.85% saline. The suspensions of fungal spores were prepared by gentle stripping of spores from slopes with growing mycelia. The resulting suspensions were 1:1000 diluted in sterile 0.85% saline.
(§4) Antimicrobial activity was tested by determining the minimum inhibitory concentrations (MICs) and minimum microbicidal concentrations (MBCs) using the microdilution plate method with resazurin [56]. The 96-well plates were prepared by dispensing 100 μL of Mueller–Hinton broth for bacteria and Sabouard broth for fungi into each well. A 10 μL aliquot from the stock solution of the tested extract or component was added to the first row of the plate. Then, two-fold serial dilutions were performed using a multichannel pipette. The obtained concentration range was from 10 to 0.08 mg/mL. The method is described in detail in [76].
(§5) Each test included growth control and sterility control.
(§6) Minimum microbicidal concentrations were determined by plating 10 μL of samples from wells where no indicator color change or no mycelia growth was recorded on a nutrient agar medium. At the end of the incubation period, the lowest concentration with no growth (no colony) was defined as the minimum microbicidal concentration.

S. aureus ATCC 6538 = assay: Microdilution with resazurin, antibacterial; assay type: cell-based, Staphylococcus aureus
Experimental: as §1, §2, §3, §4, §5, §6

P. mirabilis (isolate) = assay: Microdilution with resazurin, antibacterial; assay type: cell-based, Proteus mirabilis
Experimental: as §1, §2, §3, §4, §5, §6

P. mirabilis ATCC 12453 = assay: Microdilution with resazurin, antibacterial; assay type: cell-based, Proteus mirabilis
Experimental: as §1, §2, §3, §4, §5, §6

E. coli ATCC 25922 = assay: Microdilution with resazurin, antibacterial; assay type: cell-based, Escherichia coli
Experimental: as §1, §2, §3, §4, §5, §6

S. enterica (isolate) = assay: microbe, parasite or virus in culture; assay type: cell-based, Salmonella enterica
Experimental: as §1, §2, §3, §4, §5, §6

P. aeruginosa biofilm = assay: Antibiofilm activity (biofilm formation, crystal violet); assay type: cell-based, Pseudomonas aeruginosa; settings: P. aeruginosa, 37 °C, 48 h
Experimental: (§7) The ability of S. aureus ATCC 6538 and P. aeruginosa to form biofilms was assayed as described by O’Toole et al. with some modifications. Briefly, the tissue culture of 96-well microtiter plates (Sarstedt, Germany) were prepared by dispensing 100 µL of nutrient broth (i.e., Mueller–Hinton broth) into each well. Ten microliters of spore suspension (10^8 colony-forming units (CFU)/mL) was added into each row. […] Biofilms formed by adherent cells in 96-well microtiter plates were stained with crystal violet (0.1% w/v; Fluka AG, Buchs, Switzerland) and incubated at room temperature for 20 min. Excess stain was rinsed off by thorough washing with deionized water and then with […] of 96% ethanol. Optical densities (ODs) of stained adherent bacteria were determined with an enzyme-linked immunosorbent assay (ELISA) plate reader (RT-2100C, Rayto, Shenzhen, China) at a 630 nm wavelength. Only broth served as a control to check sterility and nonspecific binding of media. To compensate for background absorbance, OD readings from sterile medium, fixative, and dye were averaged and subtracted from all test values. All tests were performed in duplicate. The tissue culture of 96-well microtiter plates (Sarstedt, Nümbrecht, Germany) were prepared by dispensing 100 µL of nutrient broth (i.e., Mueller–Hinton broth) into each well. From the stock solution of the tested extracts or components (concentration: 20 mg/mL), 100 µL was added to the first row of the microtiter plate. Two-fold serial dilutions were then made using a multichannel pipette, following which 10 µL of fresh bacterial suspension was added to each well. The inoculated microtiter plates were incubated at 37 °C for 48 h. After incubation, the content of each well was gently removed by tapping the microtiter plates. […] Biofilms formed by adherent cells in 96-well microtiter plates were stained with crystal violet (0.1% w/v; Fluka AG, Switzerland) and incubated at room temperature for 20 min. Excess stain was rinsed off by thorough washing with deionized water and then with […] densities (ODs) of stained adherent bacteria were determined with an enzyme-linked immunosorbent assay (ELISA) plate reader at a 630 nm wavelength. […] Only broth or broth with extracts served as a control to check the sterility and nonspecific binding of media. To compensate for background absorbance, OD readings from sterile medium, extracts, fixative, and dye were averaged and subtracted from all test values. All tests were performed in duplicate.

[1] = tested on: S. aureus ATCC 6538 biofilm; assay: as above; assay type: cell-based, Staphylococcus aureus; settings: S. aureus ATCC 6538, 37 °C, 48 h
Experimental: as §7

B. cereus (isolate) = assay: Microdilution with resazurin, antibacterial; assay type: cell-based, Bacillus cereus
Experimental: as §1, §2, §3, §4, §5, §6

S. Typhimurium (isolate) = assay: Microdilution with resazurin, antibacterial; assay type: cell-based, Salmonella Typhimurium
Experimental: as §1, §2, §3, §4, §5, §6

B. subtilis (isolate) = assay: Microdilution with resazurin, antibacterial; assay type: cell-based, Bacillus subtilis
Experimental: as §1, §2, §3, §4, §5, §6

B. subtilis ATCC 6633 = assay: Microdilution with resazurin, antibacterial; assay type: cell-based, Bacillus subtilis
Experimental: as §1, §2, §3, §4, §5, §6

[2] = S. enterica, extracts and usnic acid

In the case of `CN(C)[C@@H]1C(O)=C(C(N)=O)C(=O)[C@@]2(O)C(O)=C3C(=O)c4c(O)cccc4[C@@](C)(O)[C@H]3C[C@@H]12` [TC, tetracycline], the MBC (S. aureus (isolate); Staphylococcus aureus, antibiotics, read-out: MBC) is reported as less than 0.06 µg/mL, the MIC (S. aureus (isolate); Staphylococcus aureus, antibiotics, read-out: MIC) is reported as less than 0.06 µg/mL and the MBC (S. aureus ATCC 6538; Staphylococcus aureus, ATCC6538, antibiotics, read-out: MBC) is reported as 6 µg/mL (≈ 13.5 µM). For the same compound, the MIC (S. aureus ATCC 6538; Staphylococcus aureus, ATCC6538, antibiotics, read-out: MIC) was 3 µg/mL (≈ 6.75 µM), the MBC (P. mirabilis (isolate); Proteus mirabilis, antibiotics, read-out: MBC) was greater than 128 µg/mL and the MIC (P. mirabilis (isolate); Proteus mirabilis, antibiotics, read-out: MIC) was greater than 128 µg/mL. It also gave an MBC (P. mirabilis ATCC 12453; Proteus mirabilis, ATCC12453, antibiotics, read-out: MBC) of 4 µg/mL (≈ 9 µM), an MIC (P. mirabilis ATCC 12453; Proteus mirabilis, ATCC12453, antibiotics, read-out: MIC) of 2 µg/mL (≈ 4.5 µM) and an MBC (E. coli ATCC 25922; Escherichia coli, ATCC25922, antibiotics, read-out: MBC) of 6 µg/mL (≈ 13.5 µM). For the same compound, the MIC (E. coli ATCC 25922; Escherichia coli, ATCC25922, antibiotics, read-out: MIC) was 4 µg/mL (≈ 9 µM), the MBC (S. enterica (isolate); Salmonella enterica) was 2 µg/mL (≈ 4.5 µM) and the “BIC90 (biofilm inhibitory concentration, 90% reduction of biofilm coverage)” value (P. aeruginosa biofilm) was greater than 1000 µg/mL. For the same compound, the IC50 (P. aeruginosa biofilm; Pseudomonas aeruginosa, read-out: BIC50 (biofilm inhibitory concentration, 50% reduction of biofilm coverage)) was greater than 1000 µg/mL, the “BIC90 (biofilm inhibitory concentration, 90% reduction of biofilm coverage)” value [1] was greater than 1000 µg/mL and the IC50 ([1]; Staphylococcus aureus, ATCC6538, read-out: BIC50 (biofilm inhibitory concentration, 50% reduction of biofilm coverage)) was 249 µg/mL (≈ 560 µM). It also gave an MBC (B. cereus (isolate); Bacillus cereus, antibiotics, read-out: MBC) of 0.5 µg/mL (≈ 1.13 µM), an MIC (B. cereus (isolate); Bacillus cereus, antibiotics, read-out: MIC) of 0.25 µg/mL (≈ 0.563 µM) and an MBC (S. Typhimurium (isolate); Salmonella enterica, antibiotics, read-out: MBC) of 2 µg/mL (≈ 4.5 µM). It also gave an MBC (B. subtilis (isolate); Bacillus subtilis, antibiotics, read-out: MBC) of 0.25 µg/mL (≈ 0.563 µM), an MIC (B. subtilis (isolate); Bacillus subtilis, antibiotics, read-out: MIC) of less than 0.06 µg/mL and an MBC (B. subtilis ATCC 6633; Bacillus subtilis, ATCC6633, antibiotics, read-out: MBC) of 0.37 µg/mL (≈ 0.833 µM). For the same compound, the MIC (B. subtilis ATCC 6633; Bacillus subtilis, ATCC6633, antibiotics, read-out: MIC) was 0.25 µg/mL (≈ 0.563 µM).
With usnic acid the MBC (S. aureus (isolate); extracts and usnic acid) was 156 µg/mL, the MIC (S. aureus (isolate); extracts and usnic acid) was 156 µg/mL and the MBC (S. aureus ATCC 6538; extracts and usnic acid) was 625 µg/mL. For the same compound, the MIC (S. aureus ATCC 6538; extracts and usnic acid) was 312.5 µg/mL, the MBC (P. mirabilis (isolate); extracts and usnic acid) was less than 10000 µg/mL and the MIC (P. mirabilis (isolate); extracts and usnic acid) was less than 10000 µg/mL. The MBC (P. mirabilis ATCC 12453; extracts and usnic acid) was less than 10000 µg/mL, the MIC (P. mirabilis ATCC 12453; extracts and usnic acid) was less than 10000 µg/mL and the MBC (E. coli ATCC 25922; extracts and usnic acid) was less than 10000 µg/mL. The MIC (E. coli ATCC 25922; extracts and usnic acid) was less than 10000 µg/mL, the MBC (S. enterica (isolate); [2]) was less than 10000 µg/mL and the MIC (S. enterica (isolate); [2]) was less than 10000 µg/mL. For the same compound, the “BIC50 (biofilm inhibitory concentration, 50% reduction of biofilm coverage)” value (P. aeruginosa biofilm) was > 10,000 µg/mL, the “BIC90 (biofilm inhibitory concentration, 90% reduction of biofilm coverage)” value (P. aeruginosa biofilm) was > 10,000 µg/mL and the “BIC50 (biofilm inhibitory concentration, 50% reduction of biofilm coverage)” value (P. aeruginosa biofilm; listed as UA) was <10,000 µg/mL. The “BIC90 (biofilm inhibitory concentration, 90% reduction of biofilm coverage)” value (P. aeruginosa biofilm; listed as UA) was <10,000 µg/mL, the “BIC50 (biofilm inhibitory concentration, 50% reduction of biofilm coverage)” value [1] was 1750 µg/mL and the “BIC90 (biofilm inhibitory concentration, 90% reduction of biofilm coverage)” value [1] was 5000 µg/mL. The MBC (B. cereus (isolate); extracts and usnic acid) was less than 80 µg/mL, the MIC (B. cereus (isolate); extracts and usnic acid) was less than 80 µg/mL and the MBC (S. Typhimurium (isolate); extracts and usnic acid) was less than 10000 µg/mL. It also gave an MIC (S. Typhimurium (isolate); extracts and usnic acid) of less than 10000 µg/mL, an MBC (B. subtilis (isolate); extracts and usnic acid) of less than 80 µg/mL and an MIC (B. subtilis (isolate); extracts and usnic acid) of less than 80 µg/mL. It also gave an MBC (B. subtilis ATCC 6633; extracts and usnic acid) of less than 80 µg/mL and an MIC (B. subtilis ATCC 6633; extracts and usnic acid) of less than 80 µg/mL.
